Measurements as given in article PMC6472001, “Phenolic Compounds from Humulus lupulus as Natural Antimicrobial Products: New Weapons in the Fight against Methicillin Resistant Staphylococcus aureus, Leishmania mexicana and Trypanosoma brucei Strains” (Molecules, 2019).

Key:
Assay type in all cases: cell-based
[1] = tested on: Staphylococcus aureus T26A4; experiment: Second screening, agar dilution MIC
Experimental: (§1) Clinical bacterial isolates from human samples collected in Lille (France) and some collection strains were used. The first screening step on pathogenic bacteria was carried out with crude hydro-alcoholic extracts of different hop parts (Table 1). The second screening was performed using sub-extracts of cones on Gram-positive bacteria, including methicillin-sensitive Staphylococcus aureus (MSSA) and methicillin-resistant Staphylococcus aureus […] (Table 2). These tests were carried out on Petri dishes, Mueller-Hinton Agar (MHA) (Oxoid, UK) was mixed with the plant extract solution in MeOH at 5% (solvent control: 5% MeOH). Final extract concentrations in Petri dishes ranged from 1250 to 4.9 µg/mL. A multi-headed inoculator allowed spotting bacterial strains at 10^5 CFU/mL in cysteinated Ringer (CR) solution (Merck®, France). Minimal Inhibitory Concentrations (MICs) were visually determined after 24 h of incubation at 37 °C.

[2] = tested on: Streptococcus agalactiae 13225; experiment: Second screening, agar dilution MIC
Experimental: as §1

[3] = tested on: Staphylococcus aureus T36B1; experiment: Second screening, agar dilution MIC
Experimental: as §1

[4] = tested on: Staphylococcus lugdunensis T26A3; experiment: Second screening, agar dilution MIC; details: Table 2
Experimental: as §1

[5] = tested on: Streptococcus agalactiae T25.7; experiment: Second screening, agar dilution MIC
Experimental: as §1

[6] = tested on: Staphylococcus aureus 8147; experiment: Second screening, agar dilution MIC; details: Table 2
Experimental: as §1

[7] = tested on: Staphylococcus epidermidis 5001; experiment: Second screening, agar dilution MIC; details: Table 2
Experimental: as §1

[8] = tested on: Streptococcus agalactiae T38.2; experiment: Second screening, agar dilution MIC
Experimental: as §1

[9] = tested on: Streptococcus agalactiae T40A2; experiment: Second screening, agar dilution MIC
Experimental: as §1

[10] = tested on: Staphylococcus aureus T6.7; experiment: Second screening, agar dilution MIC
Experimental: as §1

[11] = tested on: Enterococcus faecalis T37A4; experiment: Second screening, agar dilution MIC
Experimental: as §1

[12] = tested on: Staphylococcus aureus T1.1; experiment: Second screening, agar dilution MIC
Experimental: as §1

[13] = tested on: Staphylococcus aureus T25.10; experiment: Second screening, agar dilution MIC
Experimental: as §1

[14] = tested on: Enterococcus faecalis T26-B7; experiment: Second screening, agar dilution MIC
Experimental: as §1

[15] = tested on: Staphylococcus aureus T25.9; experiment: Second screening, agar dilution MIC
Experimental: as §1

[16] = tested on: Staphylococcus aureus CIP 224; experiment: Second screening, agar dilution MIC
Experimental: as §1

[17] = tested on: Enterococcus faecalis T39-C11; experiment: Second screening, agar dilution MIC
Experimental: as §1

[18] = tested on: Staphylococcus aureus T28.1; experiment: Second screening, agar dilution MIC
Experimental: as §1

[19] = tested on: Staphylococcus aureus T47A12; experiment: Second screening, agar dilution MIC
Experimental: as §1

Corynebacterium T25-17 [20] = experiment: Second screening, agar dilution MIC; details: Table 2
Experimental: as §1

[21] = tested on: Streptococcus agalactiae 13226; experiment: Second screening, agar dilution MIC
Experimental: as §1

[22] = tested on: Staphylococcus saprophyticus 08237; experiment: Second screening, agar dilution MIC
Experimental: as §1

[23] = tested on: Enterococcus faecalis T34-2; experiment: Second screening, agar dilution MIC
Experimental: as §1

[24] = tested on: Staphylococcus aureus T25.3; experiment: Second screening, agar dilution MIC
Experimental: as §1

[25] = tested on: Staphylococcus pettenkoferi T3.3; experiment: Second screening, agar dilution MIC
Experimental: as §1

[26] = tested on: Citrobacter freundii 11041; experiment: First screening, agar dilution MIC
Experimental: as §1

Salmonella sp. 11033 = experiment: First screening, agar dilution MIC
Experimental: as §1

[27] = tested on: Providencia stuartii 11038; experiment: First screening, agar dilution MIC
Experimental: as §1

[28] = tested on: Staphylococcus epidermidis 10282; experiment: First screening, agar dilution MIC
Experimental: as §1

[29] = tested on: Staphylococcus warneri T12A12; experiment: First screening, agar dilution MIC
Experimental: as §1

[30] = tested on: Enterobacter cloacae 11051; experiment: First screening, agar dilution MIC
Experimental: as §1

[31] = tested on: Staphylococcus lugdunensis T26A3; experiment: First screening, agar dilution MIC
Experimental: as §1

[32] = tested on: Staphylococcus aureus 8147; experiment: First screening, agar dilution MIC
Experimental: as §1

[33] = tested on: Staphylococcus epidermidis 5001; experiment: First screening, agar dilution MIC
Experimental: as §1

[34] = tested on: Streptococcus dysgalactiae T46C14; experiment: First screening, agar dilution MIC
Experimental: as §1

[35] = tested on: Enterococcus faecalis C159-6; experiment: First screening, agar dilution MIC
Experimental: as §1

Enterococcus sp. 8153 = experiment: First screening, agar dilution MIC
Experimental: as §1

[36] = tested on: Mycobacterium smegmatis 5003; experiment: First screening, agar dilution MIC
Experimental: as §1

[37] = tested on: Acinetobacter baumannii 9010; experiment: First screening, agar dilution MIC
Experimental: as §1

[38] = tested on: Enterobacter cloacae 11053; experiment: First screening, agar dilution MIC
Experimental: as §1

[39] = tested on: Enterobacter cloacae 11050; experiment: First screening, agar dilution MIC
Experimental: as §1

[40] = tested on: Pseudomonas aeruginosa ATCC 27583; experiment: First screening, agar dilution MIC
Experimental: as §1

[41] = tested on: Streptococcus agalactiae T53C2; experiment: First screening, agar dilution MIC
Experimental: as §1

[42] = tested on: Klebsiella pneumoniae 11017; experiment: First screening, agar dilution MIC
Experimental: as §1

[43] = tested on: Serratia marcescens 11056; experiment: First screening, agar dilution MIC
Experimental: as §1

[44] = tested on: Stenotrophomonas maltophilia; experiment: First screening, agar dilution MIC
Experimental: as §1

[45] = tested on: Serratia marcescens 11057; experiment: First screening, agar dilution MIC
Experimental: as §1

Escherichia coli 8157 = experiment: First screening, agar dilution MIC
Experimental: as §1

[46] = tested on: Klebsiella pneumoniae 11016; experiment: First screening, agar dilution MIC
Experimental: as §1

Corynebacterium T25-17 [47] = experiment: First screening, agar dilution MIC
Experimental: as §1

[48] = tested on: Citrobacter freundii 11042; experiment: First screening, agar dilution MIC
Experimental: as §1

[49] = tested on: Staphylococcus aureus 8146; experiment: First screening, agar dilution MIC
Experimental: as §1

Escherichia coli 8138 = experiment: First screening, agar dilution MIC
Experimental: as §1

[50] = tested on: Escherichia coli ATCC 25922; experiment: First screening, agar dilution MIC
Experimental: as §1

[51] = tested on: Acinetobacter baumannii 9011; experiment: First screening, agar dilution MIC
Experimental: as §1

[52] = tested on: Streptococcus agalactiae T25-7; experiment: First screening, agar dilution MIC
Experimental: as §1

[53] = tested on: Pseudomonas aeruginosa 8131; experiment: First screening, agar dilution MIC
Experimental: as §1

Proteus mirabilis 11060 = experiment: First screening, agar dilution MIC
Experimental: as §1

CC1(C)S[C@@H]2[C@H](NC(=O)[C@H](N)c3ccc(O)cc3)C(=O)N2[C@H]1C(=O)O [AMX, Amoxicillin]
Susceptibility to AMX [1]: S (Amoxicillin (AMX) S ≤ 4)
Susceptibility to AMX [2]: S (Amoxicillin (AMX) S ≤ 4)
Susceptibility to AMX [3]: R (R > 16)
Susceptibility to AMX [4]: S (Amoxicillin (AMX) S ≤ 4)
Susceptibility to AMX [5]: S (Amoxicillin (AMX) S ≤ 4)
Susceptibility to AMX [6]: S (Amoxicillin (AMX) S ≤ 4)
Susceptibility to AMX [7]: S (Amoxicillin (AMX) S ≤ 4)
Susceptibility to AMX [8]: S (Amoxicillin (AMX) S ≤ 4)
Susceptibility to AMX [9]: S (Amoxicillin (AMX) S ≤ 4)
Susceptibility to AMX [10]: R (R > 16)
Susceptibility to AMX [11]: S (Amoxicillin (AMX) S ≤ 4)
Susceptibility to AMX [12]: S (Amoxicillin (AMX) S ≤ 4)
Susceptibility to AMX [13]: R (R > 16)
Susceptibility to AMX [14]: S (Amoxicillin (AMX) S ≤ 4)
Susceptibility to AMX [15]: R (R > 16)
Susceptibility to AMX [16]: S (Amoxicillin (AMX) S ≤ 4)
Susceptibility to AMX [17]: S (Amoxicillin (AMX) S ≤ 4)
Susceptibility to AMX [18]: R (R > 16)
Susceptibility to AMX [19]: R (R > 16)
Susceptibility to AMX (Corynebacterium T25-17 [20]): S (Amoxicillin (AMX) S ≤ 4)
Susceptibility to AMX [21]: S (Amoxicillin (AMX) S ≤ 4)
Susceptibility to AMX [22]: S (Amoxicillin (AMX) S ≤ 4)
Susceptibility to AMX [23]: S (Amoxicillin (AMX) S ≤ 4)
Susceptibility to AMX [24]: R (R > 16)
Susceptibility to AMX [25]: S (Amoxicillin (AMX) S ≤ 4)
Susceptibility to AMX [26]: S (Amoxicillin (AMX) S ≤ 4)
Susceptibility to AMX (Salmonella sp. 11033): R (R > 16)
Susceptibility to AMX [27]: S (Amoxicillin (AMX) S ≤ 4)
Susceptibility to AMX [28]: S (Amoxicillin (AMX) S ≤ 4)
Susceptibility to AMX [29]: S (Amoxicillin (AMX) S ≤ 4)
Susceptibility to AMX [30]: R (R > 16)
Susceptibility to AMX [31]: S (Amoxicillin (AMX) S ≤ 4)
Susceptibility to AMX [32]: S (Amoxicillin (AMX) S ≤ 4)
Susceptibility to AMX [33]: S (Amoxicillin (AMX) S ≤ 4)
Susceptibility to AMX [34]: S (Amoxicillin (AMX) S ≤ 4)
Susceptibility to AMX [35]: R (R > 16)
Susceptibility to AMX (Enterococcus sp. 8153): S (Amoxicillin (AMX) S ≤ 4)
Susceptibility to AMX [36]: S (Amoxicillin (AMX) S ≤ 4)
Susceptibility to AMX [37]: R (R > 16)
Susceptibility to AMX [38]: R (R > 16)
Susceptibility to AMX [39]: R (R > 16)
Susceptibility to AMX [40]: R (R > 16)
Susceptibility to AMX [41]: S (Amoxicillin (AMX) S ≤ 4)
Susceptibility to AMX [42]: R (R > 16)
Susceptibility to AMX [43]: R (R > 16)
Susceptibility to AMX [44]: R (R > 16)
Susceptibility to AMX [45]: R (R > 16)
Susceptibility to AMX (Escherichia coli 8157): R (R > 16)
Susceptibility to AMX [46]: R (R > 16)
Susceptibility to AMX (Corynebacterium T25-17 [47]): S (Amoxicillin (AMX) S ≤ 4)
Susceptibility to AMX [48]: R (R > 16)
Susceptibility to AMX [49]: I
Susceptibility to AMX (Escherichia coli 8138): R (R > 16)
Susceptibility to AMX [50]: I
Susceptibility to AMX [51]: R (R > 16)
Susceptibility to AMX [52]: S (Amoxicillin (AMX) S ≤ 4)
Susceptibility to AMX [53]: R (R > 16)
Susceptibility to AMX (Proteus mirabilis 11060): R (R > 16)
